Reference: patent US20060029563A1, “Cutanceous metabolic bio-activator” (Jean-Noel Thorel, priority 2002, published 2006)
Where a SMILES comes first, the peptide text is derived from it. [ ]: non-standard residue; d: D form. Cit = NC(=O)NCCC[C@H](N)C(=O)O

Assays:
HaCaT cells = test: growth of HaCaT cells, WST-1 conversion method; format: cell-based, human
Procedure: The objective of this trial is to evaluate the effect of the combination ATP+peptides, added to a culture medium, on the growth of an immortalized line of human […], HaCaT cells.
The study is carried out on a culture prepared in the standard culture medium for HaCaT cells, DMEM (Sigma) in the presence of fetal calf serum (SVF) at 2 or 10%.
The HaCaT cells are seeded at low density in a 96-well plate in the standard medium (DMEM+10% SVF) and grow for 24 h after seeding in this medium.
On the 2nd day, the cells are placed under the various conditions studied.
The test concentrations in terms of ATP, β-alanyl-L- histidine (Carnosine) and L-citrullyl-L-arginine (exsy- algine) are determined subsequent to preliminary cytotoxicity studies.
The following conditions are prepared: • A control condition: culture medium alone+SVF • A condition consisting of β-alanyl-L-histidine alone at 0.5%. • A condition consisting of L-citrullyl-L-arginine are known at 0.5%. • A condition consisting of ATP alone at 1 μg/ml. • A condition consisting of ATP (1 μg/ml)+β-alanyl-L-histidine (0.5%). • A condition consisting of ATP (1 μg/ml)+L-citrullyl-L-arginine (0.5%) • A condition consisting of ATP (1 μg/ml)+β-alanyl-L-histidine (0.5%)+L- citrullyl-L-arginine (0.5%).
These various conditions are prepared both in the DMEM containing 2% SVF and the DMEM containing 10% SVF.
Each condition is prepared in triplicate. The media are not renewed in the course of the experiment.
The cell density is evaluated 24 h after seeding of the cells, before the cells are brought into contact with the various study conditions (=T0), and the growth of the HaCaT cells is then evaluated on the 2nd, 5th and 7th days of culture by means of the WST-1 conversion method (reading at 450 nm).
The cell growth is objectified by measuring the cell viability at various times of the experiment. The results obtained give the percentage cell viability calculated with respect to the initial cell density at T0, for which it is estimated that the cell density is equal to 100%. The effects of the various products on cell growth are analyzed at the various times of the experiment, relative to the nontreated control at the same time of the experiment.

normal human melanocytes = test: comet assay on UVA-irradiated normal human melanocytes; format: cell-based; conditions: 4 mM each
Procedure: Cultures of normal human melanocytes (MHNs) are prepared from fore skins of infants and of newborns suffering from phimosis. The melanocytes obtained from skin fragments are placed in MCDB 153 medium (Sigma St Louis, Mo., USA) supplemented with 30 μg/ml of bovine pituitary extract (BPE) (Life Technologies, Paisley, England), 2% of fetal calf serum (SVF) (Dominique Dutscher, Brumath, France), 16 nM of phorbol-12-myristate-13-acetate (Sigma), 5 μg/ml of insulin and 1.1 μM of hydrocortisone (Sigma). The cultures are maintained in an incubator at 37° C. and-in-an atmosphere containing 5% CO2. Pure cultures of melanocytes are obtained after 2 to 3 weeks.
All the compositions tested are solubilized in DMSO at the maximum concentrations permitted. Preliminary trials are carried out in order to determine the subtoxic concentrations on the keratinocytes. The final concentration of DMSO is always less than 2%.
The melanocytes are brought into contact with the product for 30 min at 37° C., and are then irradiated with UVA radiation. The UVA irradiations are generated by means of a Bio-Sun UV-irradiator (Vilbert Lourmat, Marne la Vallée). This device is equipped with monochromatic lamps that emit a wavelength of 312 nm and/or 365 nm. The lamps deliver a calculated energy by means of an RMW-365/312 radiometer. The energies delivered are 0.8 J/cm^2 for the UVA range. The “comet” assay is carried out immediately after exposure. Two types of controls are included in these experiments: • negative controls: melanocytes that are not treated but […]; melanocytes treated for 30 min with the composition tested, but not irradiated. • Positive control: melanocytes that are not treated but are irradiated.
After treatment with a typsin/EDTA mixture (0.05%/0.02%) for 2 to 3 minutes, the cultures are 15 recovered by centrifugation and placed in PBS buffer without Ca++ and without Mg++ (Sigma). Following a second centrifugation, the cells (4.5-5.0×10^4 cells) are suspended in 0.5% low melting point (LMP) agarose (Sigma). The mixture is directly deposited onto microscope slides coated with a prelayer of agarose (1.6%) dried overnight at ambient temperature and freshly precoated with a second layer of agarose (0.8%).
The protocol for the comet assay is that of De Meo et al., incorporating the “dry slide” technique. After the irradiations, the slides are placed in a lysis bath (2.5 M NaCl, 100 mM Na2EDTA, 10 mM Tris-HCl, pH 10, 1% of sodium sarcosinate, 1% of triton X-100 and 10% of DMSO). The cell lysis is performed at 4° C. for 60 minutes, followed by denaturation of the DNA at ambient temperature for 20 min in a strongly alkaline solution (1 mM Na2EDTA and 300 mM NaOH, pH>13.0). After electrophoresis (25 V, 300 mA) for 20 min., the slides are neutralized with the Tris-HCl buffer (0.4 M; pH 7.4) and dehydrated in absolute ethanol or methanol.
The slides are stained with ethidium bromide solution (75 μl of 2 μg/ml) and observed using a BH2-RFL fluorescence microscope (Olympus, Japan) equipped with a 20BG-W dichroic filter (excitation: 515-560 nm; emission: 590 nm) and with an Apo D-Plan 20× objective. The image analysis is carried out with a high sensitivity monochrome CCD camera (Cohu 4912-5000) coupled to a Matrox IP-8 acquisition board. The entire assembly is controlled by means of the Fenestra Komet software (Kinetic Imaging, Liverpool, UK, version 3.1).
A total of 100 cells per sample (50 cells/slide) is analyzed. The parameter used is “tail DNA”, which is defined as the percentage of DNA in the tail of the “comet”. For each series of experiments, a negative control (nonirradiated cells) and a positive control (irradiated cells without composition tested) are included.
Nonlinear regressions based on a χ^2 function are calculated directly from the TM (tail moment) distribution frequencies for each sample. Specifically, Bauer et al. have recently shown that these distributions follow a χ^2 function. […]

[1] = system: secretion of endothelin-1 by normal human keratinocytes; test: endothelin-1 secretion by keratinocytes (ELISA), nonirradiated or after UV B irradiation; format: cell-based; conditions: for increase in the basal secretion of endothelin-1 compared with the water control: nonirradiated
Procedure: The trial is carried out on an in vitro culture of normal human keratinocytes seeded at a density of 10^5 cells/well in 6-well plates.
The keratinocytes, seeded in 6-well plates at a density of 10^5 cells/well, are cultured in standard medium (Epilife Sigma) for 48 h. Before irradiation, the culture medium is removed, the cells are rinsed with PBS buffer, and 1 ml thereof is left in contact with the cells for the irradiation. The keratinocytes are subjected to a UV B irradiation (312 nm) of 20 mJ/cm^2. An identical nonirradiated condition is realized in parallel.
After irradiation (and on the nonirradiated parallel), the PBS is removed and the cells are placed under the various conditions studied: • control of water in the culture medium, […]
Each condition is realized in triplicate.
After contact for 24 h or 48 h after irradiation, the conditioned culture supernatants are recovered. The amount of endothelin-1 secreted by the keratinocytes is measured on 100 μl of supernatant by means of an ELISA technique (R&D Systems, Abingdon, UK). The endothelin-1 levels are calculated by means of the standard curve prepared with synthesized human endothelin-1. The results are expressed in pg of endothelin-1 standardized with respect to the protein concentration (pg ET-1/mg of proteins).

[2] = prior cell viability test on normal human keratinocytes; format: cell-based; conditions: after 48 h of contact, highest 2 concentrations, 0.0001% and 0.01%
Procedure: In order to determine the concentrations applicable in the context of the trial, a prior cell viability test is carried out on normal human keratinocytes.
L-citrullyl-L-arginine is dissolved in water and the final concentration is fixed at 0.1%.
6 dilutions of L-citrullyl-L-arginine from 10^−4% to 10^−2% are brought into contact with the cells for 24 h and 48 h. A “water” condition is realized as a control.
For the trial, the L-citrullyl-L-arginine will be tested at the highest 2 concentrations that allow the cell viability to be maintained at a level greater than 80%, after 48 h of contact, i.e. 0.0001% and 0.01%.

[3] = NI: nonirradiated melanocytes pretreated 30 min
[4] = melanocytes irradiated with UVA (0.8 J/cm^2), pretreated 30 min

Nc1ncnc2c1ncn2[C@@H]1O[C@H](COP(=O)(O)OP(=O)(O)OP(=O)(O)O)[C@@H](O)[C@H]1O [ATP, adenosine triphosphate]
change in cell viability (HaCaT cells; ATP alone, after 2 to 5 days of contact): −5 to −10%
effect on cell viability (in words) (HaCaT cells; after 2 days of culture, ATP 1 μg/ml): substantially decreases cell viability
effect on cell viability / growth (in words) (HaCaT cells; after 5 days of culture): substantially decreases cell viability
OTM-χ^2 (normal human melanocytes; [3]): 2.08 ± 0.02
Degree of protection (%) (normal human melanocytes; [4]): 14.6%
OTM-χ^2 (normal human melanocytes; [4]): 6.31 ± 0.38
effect on endothelin-1 synthesis (in words) ([1]; ATP alone): do not show any effect

N=C(N)NCCC[C@H](NC(=O)[C@@H](N)CCCNC(N)=O)C(=O)O [L-citrullyl-L-arginine] (H-[Cit]-Arg-OH)
cell growth relative to the nontreated control (HaCaT cells; after 2 days of culture, 0.1% and 0.5%): +5%
effect on cell viability / growth (in words) (HaCaT cells; after 5 days of culture): does not stimulate cell growth
OTM-χ^2 (normal human melanocytes; [3]): 2.06 ± 0.02
Degree of protection (%) (normal human melanocytes; [4]): 67.7%
OTM-χ^2 (normal human melanocytes; [4]): 2.22 ± 0.20
effect on the secretion of endothelin-1 (in words) ([1]; 0.01%, conclusion): considerable activating effect
increase in secretion of endothelin-1 compared with the irradiated water control ([1]; UV B 20 mJ/cm^2, 24 h, 0.0001%): 6%
increase in secretion of endothelin-1 compared with the irradiated water control ([1]; UV B 20 mJ/cm^2, 24 h, 0.001%): 28%
increase in secretion of endothelin-1 compared with the irradiated water control ([1]; UV B 20 mJ/cm^2, 48 h, 0.0001%): 4%
increase in secretion of endothelin-1 compared with the irradiated water control ([1]; UV B 20 mJ/cm^2, 48 h, 0.01%): 63%
increase in the basal secretion of endothelin-1 compared with the water control ([1]; 24 h, 0.0001%): 20%
increase in the basal secretion of endothelin-1 compared with the water control ([1]; 24 h, 0.01%): 70%
increase in the basal secretion of endothelin-1 compared with the water control ([1]; 48 h, 0.0001%): 26%
increase in the basal secretion of endothelin-1 compared with the water control ([1]; 48 h, 0.01%): 82%
viability at 48 h [2]: > 80%

NCCC(=O)N[C@@H](Cc1c[nH]cn1)C(=O)O [β-alanyl-L-histidine]
effect on cell growth (in words) (HaCaT cells; after 2 days of culture, 0.1%): no effect on growth
cell growth relative to the nontreated control (HaCaT cells; after 2 days of culture, 0.5%, 2% SVF): +22%
cell growth relative to the nontreated control (HaCaT cells; after 5 days of culture, 0.5%): +12%
effect on cell viability / growth (in words), conclusion (HaCaT cells; conclusion of the trial, at the concentrations tested): exerts a stimulatory effect on cell growth
